Target: T1, soluble epoxide hydrolase (sEH, EPHX2) (Homo sapiens, UniProt P34913)
T1 sequence (P34913 1-555): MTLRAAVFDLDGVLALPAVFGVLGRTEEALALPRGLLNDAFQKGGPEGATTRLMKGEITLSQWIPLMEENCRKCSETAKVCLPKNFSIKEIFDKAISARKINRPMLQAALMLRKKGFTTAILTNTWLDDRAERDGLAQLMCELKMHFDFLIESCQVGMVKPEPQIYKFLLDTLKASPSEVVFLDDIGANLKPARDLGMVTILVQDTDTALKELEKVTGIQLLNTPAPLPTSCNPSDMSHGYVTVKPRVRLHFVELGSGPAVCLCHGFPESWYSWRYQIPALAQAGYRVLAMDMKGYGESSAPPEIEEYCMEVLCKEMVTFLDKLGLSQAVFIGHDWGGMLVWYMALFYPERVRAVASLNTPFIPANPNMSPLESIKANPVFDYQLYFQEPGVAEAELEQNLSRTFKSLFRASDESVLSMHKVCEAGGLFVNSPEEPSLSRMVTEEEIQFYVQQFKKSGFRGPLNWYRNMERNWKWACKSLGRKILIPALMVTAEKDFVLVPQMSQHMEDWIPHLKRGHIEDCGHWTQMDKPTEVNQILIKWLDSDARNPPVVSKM
Test: fluorescent kinetic enzyme assay (off-DNA hit resynthesised after DECL selection)
Type: biochemical

Cc1cccc(CCNC(=O)c2ccc(F)c(CN(C)Cc3cc(C(=O)NCCc4cccc(C)c4)ccc3F)c2)c1 [compound 5, 5]
Ki: 9 ± 2 nM

From paper PMC6706801, “Palladium-Catalyzed Hydroxycarbonylation of (Hetero)aryl Halides for DNA-Encoded Chemical Library Synthesis” (Bioconjugate Chemistry, 2019)
